Test results: the NIST ThermoML archive (doi:10.1016/j.tca.2010.08.002)
± gives the expanded uncertainty stated by the source.

Assay: molar heat capacity at saturation pressure
Conditions: Vacuum adiabatic calorimetry

CCCCn1cc[n+](C)c1.O=S(=O)([O-])C(F)(F)F [1-butyl-3-methylimidazolium trifluoromethanesulfonate]
Conditions	molar heat capacity [J/K/mol]
170.36 K, Crystal	235.9 ± 0.4
171.28 K, Crystal	236.8 ± 0.4
172.71 K, Crystal	238.3 ± 0.4
173.26 K, Crystal	238.8 ± 0.4
175.07 K, Crystal	240.6 ± 0.4
175.23 K, Crystal	240.9 ± 0.4
177.2 K, Crystal	242.9 ± 0.4
177.42 K, Crystal	243.1 ± 0.4
179.17 K, Crystal	245 ± 0.4
179.77 K, Crystal	245.6 ± 0.4
181.13 K, Crystal	247.1 ± 0.5
182.11 K, Crystal	248.1 ± 0.5
183.1 K, Crystal	249.2 ± 0.5
184.46 K, Crystal	250.6 ± 0.5
185.06 K, Crystal	251.3 ± 0.5
186.8 K, Crystal	253.2 ± 0.5
187.02 K, Crystal	253.5 ± 0.5
188.97 K, Crystal	255.7 ± 0.5
189.13 K, Crystal	255.8 ± 0.5
190.92 K, Crystal	257.9 ± 0.5
191.47 K, Crystal	258.4 ± 0.5
192.87 K, Crystal	260 ± 0.5
193.8 K, Crystal	260.9 ± 0.5
194.82 K, Crystal	262.1 ± 0.5
196.12 K, Crystal	263.5 ± 0.5
196.77 K, Crystal	264.3 ± 0.5
198.44 K, Crystal	266.1 ± 0.5
198.72 K, Crystal	266.6 ± 0.5
200.66 K, Crystal	268.7 ± 0.5
200.76 K, Crystal	268.7 ± 0.5
202.67 K, Crystal	271 ± 0.5
203.13 K, Crystal	271.4 ± 0.5
204.73 K, Crystal	273.3 ± 0.5
205.57 K, Crystal	274.2 ± 0.5
206.78 K, Crystal	275.7 ± 0.5
208 K, Crystal	276.9 ± 0.5
208.82 K, Crystal	278.1 ± 0.5
210.42 K, Crystal	279.6 ± 0.5
210.87 K, Crystal	280.4 ± 0.5
212.84 K, Crystal	282.5 ± 0.5
212.92 K, Crystal	282.7 ± 0.5
214.96 K, Crystal	285 ± 0.5
215.25 K, Crystal	285.3 ± 0.5
217 K, Crystal	287.4 ± 0.5
217.66 K, Crystal	288 ± 0.5
219.02 K, Crystal	289.6 ± 0.5
220.07 K, Crystal	290.8 ± 0.5
221.05 K, Crystal	292.2 ± 0.5
222.47 K, Crystal	293.7 ± 0.5
223.08 K, Crystal	294.5 ± 0.5
224.86 K, Crystal	296.5 ± 0.5
225.1 K, Crystal	296.8 ± 0.5
227.12 K, Crystal	299.4 ± 0.5
227.25 K, Crystal	299.4 ± 0.5
229.13 K, Crystal	301.7 ± 0.5
229.63 K, Crystal	302.3 ± 0.5
231.14 K, Crystal	304 ± 0.5
232 K, Crystal	305.2 ± 0.5
233.14 K, Crystal	306.6 ± 0.5
234.37 K, Crystal	308.1 ± 0.5
235.15 K, Crystal	308.9 ± 0.5
236.73 K, Crystal	311 ± 0.5
237.14 K, Crystal	311.5 ± 0.5
239.09 K, Crystal	313.8 ± 0.5
239.13 K, Crystal	313.8 ± 0.5
241.12 K, Crystal	316.1 ± 0.5
241.44 K, Crystal	316.7 ± 0.5
243.1 K, Crystal	318.7 ± 0.5
243.78 K, Crystal	319.6 ± 0.5
245.08 K, Crystal	321 ± 0.5
246.12 K, Crystal	322.2 ± 0.5
247.06 K, Crystal	323.3 ± 0.5
248.45 K, Crystal	325.1 ± 0.5
249.03 K, Crystal	325.9 ± 0.5
250.76 K, Crystal	328 ± 0.5
250.78 K, Crystal	328 ± 0.5
250.99 K, Crystal	328.3 ± 0.5
252.81 K, Crystal	330.6 ± 0.5
252.95 K, Crystal	330.6 ± 0.5
253.1 K, Crystal	330.8 ± 0.5
254.78 K, Crystal	332.9 ± 0.5
254.91 K, Crystal	333.2 ± 0.5
255.41 K, Crystal	333.7 ± 0.5
256.73 K, Crystal	335.5 ± 0.5
256.86 K, Crystal	335.5 ± 0.5
257.72 K, Crystal	336.3 ± 0.5
258.69 K, Crystal	337.8 ± 0.5
258.81 K, Crystal	337.8 ± 0.5
260.02 K, Crystal	339.2 ± 0.5
260.34 K, Crystal	339.8 ± 0.5
260.64 K, Crystal	340.4 ± 0.5
260.75 K, Crystal	340.4 ± 0.5
262.32 K, Crystal	342.1 ± 0.5
262.38 K, Crystal	342.4 ± 0.5
262.59 K, Crystal	342.7 ± 0.5
262.69 K, Crystal	342.7 ± 0.5
264.34 K, Crystal	345 ± 0.5
264.53 K, Crystal	345.3 ± 0.5
264.6 K, Crystal	345 ± 0.5
264.62 K, Crystal	345.3 ± 0.5
265.54 K, Crystal	346.1 ± 0.5
266.29 K, Crystal	347.3 ± 0.6
266.46 K, Crystal	347.6 ± 0.6
266.56 K, Crystal	347.6 ± 0.6
266.89 K, Crystal	347.9 ± 0.6
267.48 K, Crystal	348.7 ± 0.6
268.23 K, Crystal	349.9 ± 0.6
268.4 K, Crystal	349.9 ± 0.6
268.49 K, Crystal	350.2 ± 0.6
269.17 K, Crystal	350.7 ± 0.6
291.91 K, Liquid	424.4 ± 0.6
293.17 K, Liquid	425 ± 0.6
293.82 K, Liquid	425.6 ± 0.6
294.28 K, Liquid	425.6 ± 0.6
295.28 K, Liquid	426.2 ± 0.6
295.44 K, Liquid	426.2 ± 0.6
295.71 K, Liquid	426.5 ± 0.6
297.38 K, Liquid	427 ± 0.6
297.43 K, Liquid	427.3 ± 0.6
297.61 K, Liquid	427.6 ± 0.6
299.48 K, Liquid	428.2 ± 0.6
301.69 K, Liquid	429.6 ± 0.6
304 K, Liquid	430.8 ± 0.6
306.31 K, Liquid	431.9 ± 0.6
308.62 K, Liquid	433.1 ± 0.6
310.93 K, Liquid	434.5 ± 0.6
313.24 K, Liquid	435.7 ± 0.6
315.55 K, Liquid	436.8 ± 0.6
317.86 K, Liquid	438 ± 0.6
320.17 K, Liquid	439.1 ± 0.6
322.48 K, Liquid	440.6 ± 0.6
324.79 K, Liquid	441.7 ± 0.6
327.1 K, Liquid	443.2 ± 0.6
329.4 K, Liquid	444.3 ± 0.6
331.71 K, Liquid	445.5 ± 0.6
334.02 K, Liquid	446.6 ± 0.6
336.33 K, Liquid	448.1 ± 0.7
338.64 K, Liquid	449.2 ± 0.7
340.94 K, Liquid	450.7 ± 0.7
343.24 K, Liquid	451.8 ± 0.7
345.55 K, Liquid	453 ± 0.7
347.85 K, Liquid	454.3 ± 0.7
350.16 K, Liquid	455.5 ± 0.7
352.47 K, Liquid	456.9 ± 0.7
354.77 K, Liquid	458.1 ± 0.7
357.08 K, Liquid	459.5 ± 0.7
359.38 K, Liquid	460.7 ± 0.7
361.68 K, Liquid	461.8 ± 0.7
363.99 K, Liquid	463 ± 0.7
366.29 K, Liquid	464.4 ± 0.7
368.59 K, Liquid	465.6 ± 0.7
